From US6800621B2, “Imidazo[4,5-b]-pyridiniummethyl-containing cephem compounds having broad antibacterial spectrum activity” (Shionogi & Co., Ltd., priority 1998, dated 2004)
≈ marks a conversion by molar mass, not a printed value. Where a name gives a salt, the structure may show the parent alone. Read-outs that look alike come from different tables or passages of the source.

Key:
[1] = tested on: E.cloacae ATCC 13047; assay: MIC by agar dilution method; type: cell-based; conditions: E.cloacae ATCC 13047, G(−)
Protocol: (§1) The minimal inhibitory concentration (MIC) of compound (I) against various bacteria was determined by an agar dilution method. As reference compounds, used were cefozopran hydrochloride (CZOP) described in JP(A) Kokai H03-47189, cefoselis sulfate (CFSL) described in JP(A) Kokai H07-196665 and WO97/41128, compound A of which 3-side chain is a type of imidazo[4,5-c]pyridiniummethyl, and vancomycin. In the table, “Ex5-3”, for example, represents the end compound of the present invention obtained in Example 5-3, and the others are similarly expressed.

[2] = tested on: E.cloacae SR4321; assay: MIC by agar dilution method; type: cell-based; conditions: E.cloacae SR4321, G(−)
Protocol: as §1

[3] = tested on: E.coli NIH JC-2; assay: MIC by agar dilution method; type: cell-based; conditions: E.coli NIH JC-2, G(−)
Protocol: as §1

[4] = tested on: E.coli SR5028; assay: MIC by agar dilution method; type: cell-based; conditions: E.coli SR5028, G(−)
Protocol: as §1

[5] = tested on: E.faecalis SR1004; assay: MIC by agar dilution method; type: cell-based; conditions: E.faecalis SR1004, G(+)
Protocol: as §1

[6] = tested on: P.aeruginosa SR24; assay: MIC by agar dilution method; type: cell-based; conditions: P.aeruginosa SR24, G(−)
Protocol: as §1

[7] = tested on: P.aeruginosae SR5393; assay: MIC by agar dilution method; type: cell-based; conditions: P.aeruginosae SR5393, G(−)
Protocol: as §1

[8] = tested on: P.vulgaris CN-329; assay: MIC by agar dilution method; type: cell-based; conditions: P.vulgaris CN-329, G(−)
Protocol: as §1

[9] = tested on: S.aureus SMITH; assay: MIC by agar dilution method; type: cell-based
Protocol: as §1

[10] = tested on: S.aureus SR14; assay: MIC by agar dilution method; type: cell-based
Protocol: as §1

[11] = tested on: S.aureus SR3626; assay: MIC by agar dilution method; type: cell-based
Protocol: as §1

[12] = tested on: S.aureus SR3637; assay: MIC by agar dilution method; type: cell-based
Protocol: as §1

[13] = tested on: S.marvescens ATCC 13880; assay: MIC by agar dilution method; type: cell-based
Protocol: as §1

[14] = tested on: S.mitis SR16376; assay: MIC by agar dilution method; type: cell-based
Protocol: as §1

[15] = tested on: S.pneumoniae SR16675; assay: MIC by agar dilution method; type: cell-based
Protocol: as §1

[16] = tested on: S.pneumoniae Type 1; assay: MIC by agar dilution method; type: cell-based
Protocol: as §1

[17] = tested on: S.aureus SR3637; assay: ED50 mouse/S.aureus SR3637; type: in vivo
[18] = Enterobacter cloacae, ATCC13047, read-out: MIC
[19] = Enterobacter cloacae, read-out: MIC
[20] = Escherichia coli, NIHJC2, read-out: MIC
[21] = Escherichia coli, read-out: MIC
[22] = Enterococcus faecalis, read-out: MIC
[23] = Pseudomonas aeruginosa, read-out: MIC
[24] = Proteus vulgaris, CN329, read-out: MIC
[25] = Staphylococcus aureus, S.aureus SMITH, G(+), read-out: MIC
[26] = Staphylococcus aureus, S.aureus SR14, G(+), read-out: MIC
[27] = Staphylococcus aureus, S.aureus SR3626 (MRSA), G(+), read-out: MIC
[28] = Staphylococcus aureus, S.aureus SR3637 (MRSA), G(+), read-out: MIC
[29] = Streptococcus mitis, S.mitis SR16376, G(+), read-out: MIC
[30] = Streptococcus pneumoniae, S.pneumoniae SR16675, G(+), read-out: MIC
[31] = Streptococcus pneumoniae, TYPE1, S.pneumoniae Type 1, G(+), read-out: MIC

Compound: CCO/N=C(\C(=O)NC1C(=O)N2C(C(=O)[O-])=C(C[n+]3ccc4c(c3)ncn4CCCN)CSC12)c1nsc(N)n1 (stereo not shown) [A, reference compound]
- MIC [1, 18]: 0.48 µg/mL (≈ 0.818 µM)
- MIC [2, 19]: 12.5 µg/mL (≈ 21.3 µM)
- MIC [3, 20]: 0.05 µg/mL (≈ 0.0852 µM)
- MIC [4, 21]: 1.56 µg/mL (≈ 2.66 µM)
- MIC [5, 22]: 50 µg/mL (≈ 85.2 µM)
- MIC [6, 23]: 0.78 µg/mL (≈ 1.33 µM)
- MIC ([7]; read-out: MIC): 3.13 µg/mL (≈ 5.34 µM)
- MIC [8, 24]: 0.1 µg/mL (≈ 0.17 µM)
- MIC [9, 25]: 0.78 µg/mL (≈ 1.33 µM)
- MIC [10, 26]: 3.13 µg/mL (≈ 5.34 µM)
- MIC [11, 27]: 25 µg/mL (≈ 42.6 µM)
- MIC [12, 28]: 25 µg/mL (≈ 42.6 µM)
- MIC [13]: 0.1 µg/mL (≈ 0.17 µM)
- MIC [14, 29]: 0.1 µg/mL (≈ 0.17 µM)
- MIC [15, 30]: 0.39 µg/mL (≈ 0.665 µM)
- MIC [16, 31]: 0.0125 µg/mL (≈ 0.0213 µM)

Compound: CO/N=C(\C(=O)N[C@@H]1C(=O)N2C(C(=O)[O-])=C(Cn3cc[n+]4ncccc34)CS[C@H]12)c1nsc(N)n1 [CZOP, cefozopran hydrochloride, reference compound]
- MIC [1, 18]: 0.2 µg/mL
- MIC [2, 19]: 6.25 µg/mL
- MIC [3, 20]: 0.05 µg/mL
- MIC [4, 21]: 0.78 µg/mL
- MIC [5, 22]: 25 µg/mL
- MIC [6, 23]: 0.78 µg/mL
- MIC ([7]; read-out: MIC): 1.56 µg/mL
- MIC [8, 24]: 0.2 µg/mL
- MIC [9, 25]: 0.78 µg/mL
- MIC [10, 26]: 0.78 µg/mL
- MIC [11, 27]: 50 µg/mL
- MIC [12, 28]: 50 µg/mL
- MIC ([13]; S.marvescens ATCC 13880, G(−), read-out: MIC): 0.1 µg/mL
- MIC [14, 29]: 0.2 µg/mL
- MIC [15, 30]: 0.78 µg/mL
- MIC [16, 31]: 0.05 µg/mL

Compound: CCON=C(C(=O)NC1C(=O)N2C(C(=O)[O-])=C(C[n+]3cccc4c3ncn4C3CCNC3)CSC12)c1nsc(N)n1.Cl (stereo not shown) [Ex4-1]
- MIC [1]: 0.78 µg/mL
- MIC [2]: 25 µg/mL
- MIC [3]: 0.2 µg/mL
- MIC [4]: 3.13 µg/mL
- MIC [5]: 50 µg/mL
- MIC [6]: 0.78 µg/mL
- MIC [7]: 3.13 µg/mL
- MIC [8]: 0.78 µg/mL
- MIC ([9]; S.aureus SMITH, G(+)): 0.78 µg/mL
- MIC ([10]; S.aureus SR14, G(+)): 1.56 µg/mL
- MIC ([11]; S.aureus SR3626 (MRSA), G(+)): 3.13 µg/mL
- MIC ([12]; S.aureus SR3637 (MRSA), G(+)): 6.25 µg/mL
- MIC ([13]; S.marvescens ATCC 13880, G(−)): 0.2 µg/mL
- MIC ([14]; S.mitis SR16376, G(+)): 0.1 µg/mL
- MIC ([15]; S.pneumoniae SR16675, G(+)): 0.39 µg/mL
- MIC ([16]; S.pneumoniae Type 1, G(+)): 0.025 µg/mL
- ED50 [17]: 11.3 mg/kg

Compound: CCON=C(C(=O)NC1C(=O)N2C(C(=O)[O-])=C(C[n+]3cccc4c3ncn4CCCN)CSC12)c1nsc(N)n1.Cl (stereo not shown) [Ex5-2]
- MIC [1]: 0.78 µg/mL
- MIC [2]: 25 µg/mL
- MIC [3]: 0.39 µg/mL
- MIC [4]: 3.13 µg/mL
- MIC [5]: 50 µg/mL
- MIC [6]: 0.78 µg/mL
- MIC [7]: 3.13 µg/mL
- MIC [8]: 0.78 µg/mL
- MIC ([9]; S.aureus SMITH, G(+)): 0.78 µg/mL
- MIC ([10]; S.aureus SR14, G(+)): 0.78 µg/mL
- MIC ([11]; S.aureus SR3626 (MRSA), G(+)): 3.13 µg/mL
- MIC ([12]; S.aureus SR3637 (MRSA), G(+)): 3.13 µg/mL
- MIC ([13]; S.marvescens ATCC 13880, G(−)): 0.39 µg/mL
- MIC ([14]; S.mitis SR16376, G(+)): 0.2 µg/mL
- MIC ([15]; S.pneumoniae SR16675, G(+)): 0.78 µg/mL
- MIC ([16]; S.pneumoniae Type 1, G(+)): 0.025 µg/mL

Compound: Cl.NCCCn1cnc2c1ccc[n+]2CC1=C(C(=O)[O-])N2C(=O)C(NC(=O)C(=NOCF)c3nsc(N)n3)C2SC1 (stereo not shown) [Ex5-3]
- MIC [1]: 0.39 µg/mL
- MIC [2]: 12.5 µg/mL
- MIC [3]: 0.1 µg/mL
- MIC [4]: 1.56 µg/mL
- MIC [5]: 100 µg/mL
- MIC [6]: 1.56 µg/mL
- MIC [7]: 6.25 µg/mL
- MIC [8]: 0.39 µg/mL
- MIC ([9]; S.aureus SMITH, G(+)): 0.78 µg/mL
- MIC ([10]; S.aureus SR14, G(+)): 0.78 µg/mL
- MIC ([11]; S.aureus SR3626 (MRSA), G(+)): 3.13 µg/mL
- MIC ([12]; S.aureus SR3637 (MRSA), G(+)): 3.13 µg/mL
- MIC ([13]; S.marvescens ATCC 13880, G(−)): 0.1 µg/mL
- MIC ([14]; S.mitis SR16376, G(+)): 0.2 µg/mL
- MIC ([15]; S.pneumoniae SR16675, G(+)): 0.78 µg/mL
- MIC ([16]; S.pneumoniae Type 1, G(+)): 0.025 µg/mL
- ED50 [17]: 5.66 mg/kg

Compound: CCON=C(C(=O)NC1C(=O)N2C(C(=O)[O-])=C(C[n+]3cccc4c3ncn4CCCNC)CSC12)c1nsc(N)n1.Cl (stereo not shown) [Ex6-2]
- MIC [1]: 0.78 µg/mL
- MIC [2]: 25 µg/mL
- MIC [3]: 0.39 µg/mL
- MIC [4]: 3.13 µg/mL
- MIC [5]: 50 µg/mL
- MIC [6]: 1.56 µg/mL
- MIC [7]: 6.25 µg/mL
- MIC [8]: 0.78 µg/mL
- MIC ([9]; S.aureus SMITH, G(+)): 1.56 µg/mL
- MIC ([10]; S.aureus SR14, G(+)): 1.56 µg/mL
- MIC ([11]; S.aureus SR3626 (MRSA), G(+)): 3.13 µg/mL
- MIC ([12]; S.aureus SR3637 (MRSA), G(+)): 3.13 µg/mL
- MIC ([13]; S.marvescens ATCC 13880, G(−)): 0.39 µg/mL
- MIC ([14]; S.mitis SR16376, G(+)): 0.1 µg/mL
- MIC ([15]; S.pneumoniae SR16675, G(+)): 0.78 µg/mL
- MIC ([16]; S.pneumoniae Type 1, G(+)): 0.025 µg/mL
- ED50 [17]: 7.92 mg/kg

Compound: CNCCCn1cnc2c1ccc[n+]2CC1=C(C(=O)[O-])N2C(=O)C(NC(=O)C(=NOCF)c3nsc(N)n3)C2SC1.Cl (stereo not shown) [Ex6-3]
- MIC [1]: 0.78 µg/mL
- MIC [2]: 12.5 µg/mL
- MIC [3]: 0.2 µg/mL
- MIC [4]: 1.56 µg/mL
- MIC [5]: 50 µg/mL
- MIC [6]: 3.13 µg/mL
- MIC [7]: 6.25 µg/mL
- MIC [8]: 0.39 µg/mL
- MIC ([9]; S.aureus SMITH, G(+)): 0.78 µg/mL
- MIC ([10]; S.aureus SR14, G(+)): 0.78 µg/mL
- MIC ([11]; S.aureus SR3626 (MRSA), G(+)): 6.25 µg/mL
- MIC ([12]; S.aureus SR3637 (MRSA), G(+)): 6.25 µg/mL
- MIC ([13]; S.marvescens ATCC 13880, G(−)): 0.2 µg/mL
- MIC ([14]; S.mitis SR16376, G(+)): 0.2 µg/mL
- MIC ([15]; S.pneumoniae SR16675, G(+)): 0.78 µg/mL
- MIC ([16]; S.pneumoniae Type 1, G(+)): 0.025 µg/mL
- ED50 [17]: 6.43 mg/kg

Compound: CN[C@H](CC(C)C)C(=O)N[C@H]1C(=O)N[C@@H](CC(N)=O)C(=O)N[C@H]2C(=O)N[C@H]3C(=O)N[C@H](C(=O)N[C@H](C(=O)O)c4cc(O)cc(O)c4-c4cc3ccc4O)[C@H](O)c3ccc(c(Cl)c3)Oc3cc2cc(c3O[C@@H]2O[C@H](CO)[C@@H](O)[C@H](O)[C@H]2O[C@H]2C[C@](C)(N)[C@H](O)[C@H](C)O2)Oc2ccc(cc2Cl)[C@H]1O [VCM, vancomycin, reference compound]
- MIC ([9]; Staphylococcus aureus): 0.78 µg/mL (≈ 0.538 µM)
- MIC ([10]; Staphylococcus aureus, SR14): 0.78 µg/mL (≈ 0.538 µM)
- MIC ([11]; Staphylococcus aureus, MRSA): 3.13 µg/mL (≈ 2.16 µM)
- MIC ([12]; Staphylococcus aureus, MRSA): 3.13 µg/mL (≈ 2.16 µM)
- MIC ([14]; Streptococcus mitis, SR16376): 0.39 µg/mL (≈ 0.269 µM)
- MIC ([15]; Streptococcus pneumoniae, SR16675): 0.2 µg/mL (≈ 0.138 µM)
- MIC ([16]; Streptococcus pneumoniae, TYPE1): 0.39 µg/mL (≈ 0.269 µM)
- ED50 ([17]; Staphylococcus aureus, read-out: ED50): 5.66 mg/kg
